≈ marks a conversion by molar mass, not a printed value. Where two headings read alike, the source gives them in different places.
How the values were obtained:
[1] = system: M. tuberculosis (Resistant strain); type: in vivo, mice; conditions: Table V; for Mean Log10 No. of CFU Lung / Mean Log10 No. of CFU Spleen: 5 day/week for 4 week, treated 01 day post-infection; for Mean Log10 No. of reduction Lung / Mean Log10 No. of reduction Spleen: difference from early controls
[2] = system: M. tuberculosis clinical isolates, resistant; assay: microbe, parasite or virus in culture; type: cell-based, Mycobacterium tuberculosis; conditions: for MIC: Mycobacterium tuberculosis; for MIC (μg/ml) against Clinical isolates Resistant: Table I, agar dilution
[3] = read-out: MIC (μg/ml) M. tuberculosis Resistant (n = 26)
[4] = read-out: MIC (μg/ml) against Clinical isolates Resistant

For `Cc1c(CN2CCN(c3cccc(C(F)(F)F)c3)CC2)cc(-c2ccc(Cl)cc2)n1-c1ccc(Cl)cc1` [Compound No. 3, 1-{[1,5-bis(4-chlorophenyl)-2-methylpyrrol-3-yl]methyl}-4-(3-trifluoromethylphenyl)piperazine], the “Mean Log10 No. of CFU Lung” value ([1]; 12.5 mg/kg) was 2.98 ± 0.5, the “Mean Log10 No. of CFU Spleen” value ([1]; 12.5 mg/kg) was 2.91 ± 0.4 and the “Mean Log10 No. of reduction Lung” value ([1]; 12.5 mg/kg) was 1.49. The “Mean Log10 No. of reduction Spleen” value ([1]; 12.5 mg/kg) was 1.72, the “Mean Log10 No. of CFU Lung” value ([1]; 25 mg/kg) was 2.3 ± 0.17 and the “Mean Log10 No. of CFU Spleen” value ([1]; 25 mg/kg) was 2.2 ± 0.31. For the same compound, the “Mean Log10 No. of reduction Lung” value ([1]; 25 mg/kg) was 2.17, the “Mean Log10 No. of reduction Spleen” value ([1]; 25 mg/kg) was 2.43 and the “Mean Log10 No. of CFU Lung” value ([1]; 50 mg/kg) was 1.99 ± 0.3. The “Mean Log10 No. of CFU Spleen” value ([1]; 50 mg/kg) was 1.97 ± 0.4, the “Mean Log10 No. of reduction Lung” value ([1]; 50 mg/kg) was 2.48 and the “Mean Log10 No. of reduction Spleen” value ([1]; 50 mg/kg) was 2.66. The MIC [2, 3] was 0.25 to 0.5 µg/mL (≈ 0.459 to 0.918 µM) and the MIC [2, 4] was 0.25 to 0.5 µg/mL (≈ 0.459 to 0.918 µM).
Work on `Cc1c(CN2CCN(c3cccc(C(F)(F)F)c3)CC2)cc(-c2ccccc2)n1-c1ccc(F)cc1F` [compound 53, 1-{[1-(2,4-difluorophenyl)-2-methyl-5-phenylpyrrol-3-yl]methyl}-4-(3-trifluoromethylphenyl)piperazine] yielded an MIC [2, 4] greater than 16 µg/mL.
Compound `Cc1c(CN2CCN(c3ccccn3)CC2)cc(-c2ccc(Cl)cc2)n1-c1ccc(F)cc1F` [compound 47, 1-{[1-(2,4-difluorophenyl)-5-(4-chlorophenyl)-2-methylpyrrol-3-yl]methyl}-4-(2-pyridyl)piperazine] has an MIC [2, 4] of 1 to 4 µg/mL (≈ 2.09 to 8.35 µM).
`Cc1cc(CN2CCN(Cc3ccc4c(c3)OCO4)CC2)c(-c2ccccc2)n1NC(=O)c1cnccn1` [compound 35, N-(3-{[4-(2H-benzo[3,4-d]1,3-dioxolan-5-ylmethyl)piperazinyl]methyl}-5-methyl-2-phenylpyrrolyl)pyrazin-2-ylcarboxamide] was tested, and the “MIC (μg/ml) against Clinical isolates Resistant” value (“MIC (μg/ml)” below) [2] was greater than 16.0 µg/mL.
In the case of `Cc1c(CN2CCN(C(=O)c3ccco3)CC2)cc(-c2ccc(Cl)cc2)n1-c1ccc(Cl)cc1` [compound 7, 4-{[1,5-bis(4-chlorophenyl)-2-methylpyrrol-3-yl]methyl}piperazinyl-2-furyl-ketone], the “MIC (μg/ml)” value [2] is reported as 2.0 to 4.0 µg/mL.
`Cc1cc(CN2CCN(c3ccccn3)CC2)c(-c2ccccc2)n1-c1ccc(F)cc1F` [compound 58, 1-{[1-(2,4-difluorophenyl)-5-methyl-2-phenylpyrrol-3-yl]methyl}-4-(2-pyridyl) piperazine] gave an MIC [2, 4] of 8 to 16 µg/mL (≈ 18 to 36 µM).
`COc1ccccc1N1CCN(Cc2cc(-c3ccccc3)n(NC(=O)c3ccncc3)c2C)CC1` [compound 13, N-(3-{[4-(2-methoxyphenyl)piperazinyl]methyl}-2-methyl-5-phenylpyrrolyl)-4-pyridylcarboxamide] was tested, and the “MIC (μg/ml)” value [2] was 1.0 to 2.0 µg/mL.
For `Cc1c(CN2CCN(c3ccccn3)CC2)cc(-c2ccccc2)n1NC(=O)c1cnccn1` [compound 28, N-(3-{[4-(2-pyridyl)piperazinyl]methyl}-2-methyl-5-phenylpyrrolyl)pyrazin-2-ylcarboxamide], the “MIC (μg/ml)” value [2] was 4.0 to 16.0 µg/mL.
`Cc1c(CN2CCN(c3ccccn3)CC2)cc(-c2ccc(Cl)cc2)n1-c1ccc(Cl)cc1` [compound 4, 1-{[1,5-bis(4-chlorophenyl)-2-methylpyrrol-3-yl]methyl}-4-(2-pyridyl) piperazine] gave an MIC [2, 4] of 0.5 to 4 µg/mL (≈ 1.05 to 8.38 µM).
In the case of `Cc1c(CN2CCS(=O)(=O)CC2)cc(-c2ccccc2)n1-c1ccccc1` [compound 88], the “MIC (μg/ml)” value [2] is reported as 2.0 to 8.0 µg/mL.
In the case of `Cc1cc(CN2CCN(c3cccc(C(F)(F)F)c3)CC2)c(-c2ccc(Cl)cc2)n1-c1cccc2ccccc12` [compound 64, 1-{[2-(4-chlorophenyl)-5-methyl-1-naphthylpyrrol-3-yl]methyl}-4-(3-trifluoromethylphenyl)piperazine], the “MIC (μg/ml)” value [2] is reported as greater than 16.0 µg/mL.
`COc1ccccc1N1CCN(Cc2cc(-c3ccc(Cl)cc3)n(NC(=O)c3cnccn3)c2C)CC1` [compound 38, N-(5-(4-chlorophenyl)-3-{[4-(2-methoxyphenyl)piperazinyl]methyl}-2-methylpyrrolyl)pyrazin-2-ylcarboxamide] was tested, and the “MIC (μg/ml)” value [2] was greater than 16.0 µg/mL.
In the case of `Cc1cc(CN2CCN(c3ccccn3)CC2)c(-c2ccccc2)n1NC(=O)c1cnccn1` [compound 34, N-(3-{[4-(2-pyridyl)piperazinyl]methyl}-5-methyl-2-phenylpyrrolyl)pyrazin-2-ylcarboxamide], the “MIC (μg/ml)” value [2] is reported as greater than 16.0 µg/mL.
With `Cc1c(CN2CCN(c3ccccn3)CC2)cc(-c2ccccc2)n1-c1ccc(F)cc1F` [compound 54, 1-{[1-(2,4-difluorophenyl)-2-methyl-5-phenylpyrrol-3-yl]methyl}-4-(2-pyridyl) piperazine] the MIC [2, 4] was 4 µg/mL (≈ 9 µM).
With `NNC(=O)c1ccncc1` [Isoniazid, reference compound] the “Mean Log10 No. of CFU Lung” value ([1]; 12.5 mg/kg) was 5.8 ± 0.4, the “Mean Log10 No. of CFU Spleen” value ([1]; 12.5 mg/kg) was 5.79 ± 0.4 and the “Mean Log10 No. of reduction Lung” value ([1]; 12.5 mg/kg) was −1.33. The “Mean Log10 No. of reduction Spleen” value ([1]; 12.5 mg/kg) was −1.16, the “Mean Log10 No. of CFU Lung” value ([1]; 25 mg/kg) was 5.12 ± 0.6 and the “Mean Log10 No. of CFU Spleen” value ([1]; 25 mg/kg) was 5.43 ± 0.5. For the same compound, the “Mean Log10 No. of reduction Lung” value ([1]; 25 mg/kg) was −0.65, the “Mean Log10 No. of reduction Spleen” value ([1]; 25 mg/kg) was −0.8 and the “Mean Log10 No. of CFU Lung” value ([1]; 50 mg/kg) was 4.43 ± 0.5. The “Mean Log10 No. of CFU Spleen” value ([1]; 50 mg/kg) was 4.7 ± 0.31, the “Mean Log10 No. of reduction Lung” value ([1]; 50 mg/kg) was 0.04 and the “Mean Log10 No. of reduction Spleen” value ([1]; 50 mg/kg) was −0.07.
With `COc1ccccc1N1CCN(Cc2cc(C)n(NC(=O)c3cnccn3)c2-c2ccccc2)CC1` [compound 32, N-(3-{[4-(2-methoxyphenyl)piperazinyl]methyl}-5-methyl-2-phenylpyrrolyl) pyrazin-2-ylcarboxamide] the “MIC (μg/ml)” value [2] was greater than 16.0 µg/mL.
In the case of `COc1ccccc1N1CCN(Cc2cc(C)n(-c3cccc4ccccc34)c2-c2ccc(Cl)cc2)CC1` [compound 63, 1-{[2-(4-chlorophenyl)-5-methyl-1-naphthylpyrrol-3-yl]methyl}-4-(2-methoxyphenyl)piperazine], the “MIC (μg/ml)” value [2] is reported as 4.0 to 16.0 µg/mL.
For `Cc1c(CN2CCN(Cc3ccccc3)CC2)cc(-c2ccccc2)n1NC(=O)c1ccncc1` [compound 15, N-(2-methyl-5-phenyl-3-{[4-benzylpiperazinyl]methyl}pyrrolyl)-4-pyridylcarboxamide], the “MIC (μg/ml)” value [2] was 4.0 to 8.0 µg/mL.
With `Cc1cc(CN2CCN(c3cccc(C(F)(F)F)c3)CC2)c(-c2ccccc2)n1NC(=O)c1ccncc1` [Compound No. 23, N-(3-{[4-(3-trifluoromethylphenyl)piperazinyl]methyl}-5-methyl-2-phenylpyrrolyl)-4-pyridylcarboxamide] the “MIC (μg/ml)” value [2] was 0.25 to 1.0 µg/mL.
Compound `COc1ccccc1N1CCN(Cc2cc(-c3ccc(Cl)cc3)n(-c3ccc(Cl)cc3)c2C)CC1` [Compound No. 2, 1-{[1,5-bis(4-chlorophenyl)-2-methylpyrrol-3-yl]methyl}-4-(2-methoxyphenyl) piperazine] has an MIC [2, 3] of 0.25 to 1 µg/mL (≈ 0.494 to 1.97 µM) and an MIC [2, 4] of 0.25 to 1 µg/mL (≈ 0.494 to 1.97 µM).
In the case of `Cc1cc(CN2CCN(c3ccc(F)cc3)CC2)c(-c2ccc(Cl)cc2)n1NC(=O)c1cnccn1` [compound 41, N-(2-(4-chlorophenyl)-3-{[4-(4-fluorophenyl)piperazinyl]methyl}-5-methylpyrrolyl)pyrazin-2-ylcarboxamide], the “MIC (μg/ml)” value [2] is reported as greater than 16.0 µg/mL.
`Cc1c(CN2CCN(c3cccc(C(F)(F)F)c3)CC2)cc(-c2ccccc2)n1NC(=O)c1ccncc1` [Compound No. 12, N-(3-{[4-(3-trifluoromethylphenyl)piperazinyl]methyl}-2-methyl-5-phenylpyrrolyl)-4-pyridylcarboxamide] was tested, and the “MIC (μg/ml)” value [2] was 0.5 to 1.0 µg/mL.
In the case of `Cc1c(CN2CCN(C(c3ccccc3)c3ccccc3)CC2)cc(-c2ccccc2)n1NC(=O)c1cnccn1` [compound 30, N-(3-{[4-(diphenylmethyl)piperazinyl]methyl}-2-methyl-5-phenylpyrrolyl)-pyrazin-2-ylcarboxamide], the “MIC (μg/ml)” value [2] is reported as 4.0 to 16.0 µg/mL.

— patent US7763602B2, “Pyrrole derivatives as antimycobacterial compounds” (priority 2002, dated 2010)
